Data as given in ChEMBL document CHEMBL1201862, “PubChem BioAssay data set” (2004).
Calls of active or inactive are those of the source.

What was measured:
[1] = molecular target: T1, Adenosylmethionine-8-amino-7-oxononanoate aminotransferase (Mycobacterium tuberculosis, UniProt P9WQ81); assay: Mycobacterium tuberculosis BioA enzyme inhibitor Measured in Biochemical System Using Plate Reader - 2163-02_Inhibitor_Dose_CherryPick_Activity.; type: functional, Mycobacterium tuberculosis UT205
T1 sequence (P9WQ81 whole entry): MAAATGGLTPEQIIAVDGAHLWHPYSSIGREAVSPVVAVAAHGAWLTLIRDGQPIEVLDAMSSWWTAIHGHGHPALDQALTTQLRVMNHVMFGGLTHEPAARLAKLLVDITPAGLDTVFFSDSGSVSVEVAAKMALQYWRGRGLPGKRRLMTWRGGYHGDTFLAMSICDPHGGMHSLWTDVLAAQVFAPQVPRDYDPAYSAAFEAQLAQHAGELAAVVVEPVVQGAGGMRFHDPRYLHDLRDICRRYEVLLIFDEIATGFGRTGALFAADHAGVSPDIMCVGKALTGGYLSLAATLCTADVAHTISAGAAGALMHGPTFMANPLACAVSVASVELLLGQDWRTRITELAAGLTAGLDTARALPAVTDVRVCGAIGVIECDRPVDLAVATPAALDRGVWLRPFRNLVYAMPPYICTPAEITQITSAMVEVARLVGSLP

[2] = molecular target: T2, Long-chain-fatty-acid--AMP ligase FadD28 (Mycobacterium tuberculosis, UniProt P9WQ59); assay: Fluorescence polarization aasay to screen for inhibitors that compete for the binding of FadD28 to a bisubstrate Measured in Biochemical System Using Plate Reader - 2147-01_Inhibitor_Dose_CherryPick_Activity.; type: functional, Mycobacterium tuberculosis H37Rv
T2 sequence (P9WQ59 whole entry): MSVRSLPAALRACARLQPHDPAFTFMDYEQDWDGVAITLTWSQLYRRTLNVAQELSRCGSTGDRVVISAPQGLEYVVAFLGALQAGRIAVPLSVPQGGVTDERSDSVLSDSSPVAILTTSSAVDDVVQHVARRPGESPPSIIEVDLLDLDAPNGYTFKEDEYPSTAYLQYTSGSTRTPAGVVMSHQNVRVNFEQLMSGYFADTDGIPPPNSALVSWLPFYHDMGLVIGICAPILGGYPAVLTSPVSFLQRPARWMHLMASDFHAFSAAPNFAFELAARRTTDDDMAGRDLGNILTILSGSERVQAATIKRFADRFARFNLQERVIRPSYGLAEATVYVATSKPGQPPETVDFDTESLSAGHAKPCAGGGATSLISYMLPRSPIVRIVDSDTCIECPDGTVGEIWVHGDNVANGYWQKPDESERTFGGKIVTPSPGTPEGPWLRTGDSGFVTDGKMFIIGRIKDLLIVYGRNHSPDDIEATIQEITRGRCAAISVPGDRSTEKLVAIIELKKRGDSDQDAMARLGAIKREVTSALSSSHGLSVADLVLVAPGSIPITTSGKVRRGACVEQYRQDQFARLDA

[3] = molecular target: T3, DNA repair protein RAD52 homolog (Homo sapiens, UniProt P43351); type: functional, biochemical
T3 sequence (P43351 whole entry): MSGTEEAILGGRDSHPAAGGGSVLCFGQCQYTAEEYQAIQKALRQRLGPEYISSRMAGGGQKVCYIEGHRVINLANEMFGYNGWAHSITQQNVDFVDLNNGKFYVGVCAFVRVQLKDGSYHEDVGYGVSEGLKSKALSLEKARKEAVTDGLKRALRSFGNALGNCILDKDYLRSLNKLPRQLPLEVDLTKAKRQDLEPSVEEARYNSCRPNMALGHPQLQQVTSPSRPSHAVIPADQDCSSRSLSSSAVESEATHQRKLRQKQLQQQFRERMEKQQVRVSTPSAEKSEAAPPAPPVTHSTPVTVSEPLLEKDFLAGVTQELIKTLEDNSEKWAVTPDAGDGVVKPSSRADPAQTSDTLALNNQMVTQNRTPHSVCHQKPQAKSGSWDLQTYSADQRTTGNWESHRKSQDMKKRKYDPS

[4] = molecular target: Beta-galactosidase (Escherichia coli, UniProt Q8VNN2); assay: PubChem AID 485352; type: functional
[5] = molecular target: T4, Type-1 angiotensin II receptor (Homo sapiens, UniProt P30556); assay: antagonism of angiotensin II type 1 receptor – cell-based, uHTS hits, selectivity assay for APJ receptor antagonist project, dose response (AID 463214); type: functional;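 note: antagonist potency against angiotensin II stimulated AT1 response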
T4 sequence (P30556 whole entry): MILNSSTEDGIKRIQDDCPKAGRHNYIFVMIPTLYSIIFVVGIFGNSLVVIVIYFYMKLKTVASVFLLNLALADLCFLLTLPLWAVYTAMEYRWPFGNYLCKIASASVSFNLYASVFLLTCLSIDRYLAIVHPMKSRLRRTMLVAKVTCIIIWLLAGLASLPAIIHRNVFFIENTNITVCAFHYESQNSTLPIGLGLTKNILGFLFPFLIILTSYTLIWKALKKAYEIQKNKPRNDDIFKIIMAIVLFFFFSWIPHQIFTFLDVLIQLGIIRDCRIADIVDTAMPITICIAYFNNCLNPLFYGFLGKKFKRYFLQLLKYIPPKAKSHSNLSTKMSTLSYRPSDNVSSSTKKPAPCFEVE

Beta-galactosidase, sequence (Q8VNN2 whole entry): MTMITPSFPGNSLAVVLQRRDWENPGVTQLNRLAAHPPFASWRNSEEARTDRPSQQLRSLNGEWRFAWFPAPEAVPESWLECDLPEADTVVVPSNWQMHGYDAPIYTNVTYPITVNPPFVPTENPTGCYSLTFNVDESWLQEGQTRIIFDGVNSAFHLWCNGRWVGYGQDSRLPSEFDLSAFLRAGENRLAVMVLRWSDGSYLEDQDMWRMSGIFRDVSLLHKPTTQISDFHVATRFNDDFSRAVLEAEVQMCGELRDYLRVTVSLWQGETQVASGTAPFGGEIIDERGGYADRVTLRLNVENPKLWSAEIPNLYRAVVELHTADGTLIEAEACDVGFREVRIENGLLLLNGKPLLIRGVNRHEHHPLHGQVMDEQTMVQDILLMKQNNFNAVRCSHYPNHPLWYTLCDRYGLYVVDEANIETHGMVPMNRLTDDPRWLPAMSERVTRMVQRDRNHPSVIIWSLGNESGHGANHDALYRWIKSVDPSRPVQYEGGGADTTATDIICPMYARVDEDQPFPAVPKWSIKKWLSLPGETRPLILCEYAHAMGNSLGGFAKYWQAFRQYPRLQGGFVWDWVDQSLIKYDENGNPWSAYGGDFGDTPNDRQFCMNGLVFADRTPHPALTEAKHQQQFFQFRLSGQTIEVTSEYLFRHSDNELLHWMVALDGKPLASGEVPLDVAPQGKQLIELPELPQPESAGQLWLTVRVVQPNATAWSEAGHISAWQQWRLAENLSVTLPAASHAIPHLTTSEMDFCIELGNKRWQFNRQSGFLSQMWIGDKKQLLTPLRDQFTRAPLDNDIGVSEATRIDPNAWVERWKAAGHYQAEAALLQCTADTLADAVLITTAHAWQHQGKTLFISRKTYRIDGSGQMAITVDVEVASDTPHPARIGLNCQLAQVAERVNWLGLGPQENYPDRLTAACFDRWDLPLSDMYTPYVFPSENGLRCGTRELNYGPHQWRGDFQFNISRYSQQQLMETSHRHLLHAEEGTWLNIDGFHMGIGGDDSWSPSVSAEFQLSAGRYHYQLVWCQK

Row | SMILES | AC50 [1] | AC50 [2] | AC50 [3] | also measured
1 | COc1ccc(NC(=O)c2cnc(C)cn2)cc1-n1cnnn1 | 0.733 µM (active) | – | – | –
2 | Cc1ccc(NC(=O)CSCC(=O)Nc2sccc2C#N)cc1 | – | 18.9 µM (active) | – | –
3 | NCCCC[C@H]1CN=C(S)N1CCCCC1CCCCC1 | – | – | 10.9 µM (active) | –
4 | CCN(CC)CCNC(=O)C(=O)NCC1OCCN1S(=O)(=O)c1cccs1 (stereo not drawn) | – | – | 29.3 µM (active) | –
5 | COc1ccc(CCN(C)c2ccc(C(N)=O)cc2[N+](=O)[O-])cc1OC | 5.7 µM (active) | – | – | –
6 | O=C(NNC(=S)Nc1ccc(Cl)cc1Cl)c1ccc(N2CCOCC2)c([N+](=O)[O-])c1 | – | 40.2 µM (active) | – | EC50 [4]: > 40 µM (inactive); IC50 [5]: > 40 µM (not active)
